Source: patent US20240051985A1, “METTL3 MODULATORS” (ACCENT THERAPEUTICS, INC., priority 2020, published 2024)

Key:
[1] = target: METTL3/METTL14 (Homo sapiens, UniProt Q86U44); assay: METTL3-14 standard enzyme assay (3H-SAM flashplate); details: Table 4; METTL3 biochemical assay
Procedure, shortened: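 Radiometric methyltransferase read-out: after quenching with excess unlabelled SAM (15 μM), biotinylated RNA was captured on streptavidin flashplates (2 h, 25° C) and counted. Reactions contained 2.5 nM enzyme (5 min preincubation), 100 nM RNA and 100 nM 3H-SAM, ran 30 min in HEPES pH 7.5 buffer with KCl, MgCl2, DTT.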

[2] = target: PRMT5-MEP50 (Homo sapiens, UniProt O14744); assay: PRMT5 assay (3H-SAM flashplate); details: Table 4; PRMT5 biochemical assay
Sequence of PRMT5-MEP50 (O14744 whole entry): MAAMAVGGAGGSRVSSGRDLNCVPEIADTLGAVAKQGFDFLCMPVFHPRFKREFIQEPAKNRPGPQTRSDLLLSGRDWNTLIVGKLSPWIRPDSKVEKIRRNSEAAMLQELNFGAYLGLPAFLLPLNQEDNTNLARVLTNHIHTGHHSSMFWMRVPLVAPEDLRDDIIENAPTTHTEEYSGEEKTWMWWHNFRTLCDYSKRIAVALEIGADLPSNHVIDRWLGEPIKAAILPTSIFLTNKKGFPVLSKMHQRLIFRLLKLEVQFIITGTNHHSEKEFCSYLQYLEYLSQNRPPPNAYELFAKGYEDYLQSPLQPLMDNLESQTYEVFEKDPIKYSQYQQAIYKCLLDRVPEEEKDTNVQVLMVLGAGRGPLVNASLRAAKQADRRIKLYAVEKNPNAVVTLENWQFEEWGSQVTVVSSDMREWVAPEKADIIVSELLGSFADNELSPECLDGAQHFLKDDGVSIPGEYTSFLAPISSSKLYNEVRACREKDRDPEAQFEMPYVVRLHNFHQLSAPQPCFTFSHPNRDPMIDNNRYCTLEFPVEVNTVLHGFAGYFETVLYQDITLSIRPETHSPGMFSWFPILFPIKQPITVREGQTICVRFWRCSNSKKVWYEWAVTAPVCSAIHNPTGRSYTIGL
Sequence of PRMT5-MEP50 (Q9BQA1 whole entry partner): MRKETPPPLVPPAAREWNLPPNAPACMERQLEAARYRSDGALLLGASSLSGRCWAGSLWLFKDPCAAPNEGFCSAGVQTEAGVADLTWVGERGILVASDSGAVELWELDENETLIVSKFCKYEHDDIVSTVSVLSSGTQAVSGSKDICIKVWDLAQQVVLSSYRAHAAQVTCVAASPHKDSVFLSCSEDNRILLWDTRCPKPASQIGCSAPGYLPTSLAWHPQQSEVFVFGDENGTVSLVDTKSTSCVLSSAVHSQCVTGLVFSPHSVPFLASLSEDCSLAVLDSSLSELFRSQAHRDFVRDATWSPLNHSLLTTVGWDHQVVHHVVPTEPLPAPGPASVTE
Procedure, shortened: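 Radiometric methyl-transfer read-out: 3H-methyl transferred to a 3′-biotinylated, acetylated H4 peptide substrate (100 nM) from 3H-SAM (250 nM), captured on streptavidin scintillation plates. Enzyme complex 2.5 nM, pH 8.0 Tris buffer with DTT and Tween, compound preincubation 5 min, 60 min reaction stopped with excess unlabeled SAM.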

[3] = target: T1, FLT3 (Homo sapiens, UniProt P36888); assay: FLT3 Caliper assay; type: biochemical; details: Table 4; read-out: FLT3 Calipher assay IC50
T1 sequence (P36888 27-993): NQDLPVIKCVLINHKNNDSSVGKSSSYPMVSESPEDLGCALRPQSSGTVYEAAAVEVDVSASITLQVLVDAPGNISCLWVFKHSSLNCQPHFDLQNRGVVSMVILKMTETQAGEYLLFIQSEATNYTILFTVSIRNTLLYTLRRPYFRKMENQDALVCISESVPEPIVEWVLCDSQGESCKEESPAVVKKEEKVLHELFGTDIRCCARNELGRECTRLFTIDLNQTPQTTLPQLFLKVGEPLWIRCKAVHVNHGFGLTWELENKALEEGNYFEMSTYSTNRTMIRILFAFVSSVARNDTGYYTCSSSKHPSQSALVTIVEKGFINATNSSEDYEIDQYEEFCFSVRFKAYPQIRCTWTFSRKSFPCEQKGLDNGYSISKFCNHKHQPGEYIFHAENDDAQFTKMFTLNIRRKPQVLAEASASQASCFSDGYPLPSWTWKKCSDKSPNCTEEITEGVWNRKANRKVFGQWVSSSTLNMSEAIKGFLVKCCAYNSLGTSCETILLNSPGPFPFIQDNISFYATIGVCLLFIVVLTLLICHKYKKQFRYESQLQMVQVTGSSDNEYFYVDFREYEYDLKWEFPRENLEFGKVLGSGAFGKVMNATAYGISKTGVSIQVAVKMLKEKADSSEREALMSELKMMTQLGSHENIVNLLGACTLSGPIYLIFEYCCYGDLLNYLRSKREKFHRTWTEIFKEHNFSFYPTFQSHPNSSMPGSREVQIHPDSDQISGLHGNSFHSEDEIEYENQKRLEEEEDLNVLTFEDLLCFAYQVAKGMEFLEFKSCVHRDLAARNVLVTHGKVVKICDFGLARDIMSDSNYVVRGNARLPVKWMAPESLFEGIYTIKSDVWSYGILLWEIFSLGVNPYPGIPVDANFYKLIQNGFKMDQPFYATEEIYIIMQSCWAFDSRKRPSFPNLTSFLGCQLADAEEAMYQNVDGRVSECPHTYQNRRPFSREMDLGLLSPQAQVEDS
Method: (§1) FLT3/FLT3-ITD Caliper Assays
(§2) Assays were performed in a 20 μl-volume in 384-well polypropylene microplates (Perkin Elmer Proxiplate, cat. No. 6059480) at ambient temperature. Optimized 1× assay buffer was 50 mM Hepes pH 7.5, 2 mM DTT, 0.01% Tween, 0.01% BSA, 10 mM MgCl2. For compound screening FLT3 (final concentration, f.c.=0.9 nM) or FLT3-ITD (f.c.=7 nM) was added using a Multidrop Combi (ThermoFisher Scientific, Waltham, MA) and preincubated for 10 min. Reactions were started by adding fluorescein-peptide (sequence 5-FAM-EAIYAAPFAKKK-CONH2) (f.c.=300 μM) and ATP (FLT3 f.c.=97 μM FLT3-ITD f.c.=146 μM) substrates. Reactions proceeded for 60 minutes. The reactions were stopped with LabChip ProfilerPro Separation Buffer containing EDTA (f.c.=20 mM). The plates were read on a Caliper microfluidics reader (PerkinElmer, Waltham, MA).

[4] = target: T2, FLT3-ITD (Homo sapiens, UniProt P36888); assay: FLT3-ITD Caliper assay; type: biochemical; details: Table 4; read-out: FLT3-ITD Calipher assay IC50
T2 sequence (P36888 1-993): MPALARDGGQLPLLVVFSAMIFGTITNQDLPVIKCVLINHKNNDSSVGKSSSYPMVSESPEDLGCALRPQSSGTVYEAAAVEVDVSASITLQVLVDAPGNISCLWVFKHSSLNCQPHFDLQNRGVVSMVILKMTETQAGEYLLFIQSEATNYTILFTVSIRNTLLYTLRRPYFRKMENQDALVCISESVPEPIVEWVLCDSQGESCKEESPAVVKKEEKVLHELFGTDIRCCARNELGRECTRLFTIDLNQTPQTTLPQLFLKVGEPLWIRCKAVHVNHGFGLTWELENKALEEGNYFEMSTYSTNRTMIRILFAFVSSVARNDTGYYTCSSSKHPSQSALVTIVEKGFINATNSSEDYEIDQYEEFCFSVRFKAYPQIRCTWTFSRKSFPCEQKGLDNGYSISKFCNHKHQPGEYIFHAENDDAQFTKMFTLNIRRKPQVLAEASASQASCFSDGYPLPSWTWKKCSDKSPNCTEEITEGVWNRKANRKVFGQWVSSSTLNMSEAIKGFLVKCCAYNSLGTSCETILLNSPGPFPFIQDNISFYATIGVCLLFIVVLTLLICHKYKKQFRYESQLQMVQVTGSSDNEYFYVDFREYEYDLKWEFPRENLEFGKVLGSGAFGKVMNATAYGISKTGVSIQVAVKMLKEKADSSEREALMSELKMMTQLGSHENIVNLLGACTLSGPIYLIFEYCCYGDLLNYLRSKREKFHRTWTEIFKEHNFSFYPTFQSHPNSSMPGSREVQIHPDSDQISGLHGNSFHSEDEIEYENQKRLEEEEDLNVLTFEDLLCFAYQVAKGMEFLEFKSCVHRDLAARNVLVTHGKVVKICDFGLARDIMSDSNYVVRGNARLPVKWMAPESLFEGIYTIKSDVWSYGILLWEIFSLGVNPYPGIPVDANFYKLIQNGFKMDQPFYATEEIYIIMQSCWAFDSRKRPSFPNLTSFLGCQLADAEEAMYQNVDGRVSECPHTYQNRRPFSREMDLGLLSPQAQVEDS
Method: as §1, §2

Sequence of METTL3/METTL14 (Q86U44 whole entry, species assumed): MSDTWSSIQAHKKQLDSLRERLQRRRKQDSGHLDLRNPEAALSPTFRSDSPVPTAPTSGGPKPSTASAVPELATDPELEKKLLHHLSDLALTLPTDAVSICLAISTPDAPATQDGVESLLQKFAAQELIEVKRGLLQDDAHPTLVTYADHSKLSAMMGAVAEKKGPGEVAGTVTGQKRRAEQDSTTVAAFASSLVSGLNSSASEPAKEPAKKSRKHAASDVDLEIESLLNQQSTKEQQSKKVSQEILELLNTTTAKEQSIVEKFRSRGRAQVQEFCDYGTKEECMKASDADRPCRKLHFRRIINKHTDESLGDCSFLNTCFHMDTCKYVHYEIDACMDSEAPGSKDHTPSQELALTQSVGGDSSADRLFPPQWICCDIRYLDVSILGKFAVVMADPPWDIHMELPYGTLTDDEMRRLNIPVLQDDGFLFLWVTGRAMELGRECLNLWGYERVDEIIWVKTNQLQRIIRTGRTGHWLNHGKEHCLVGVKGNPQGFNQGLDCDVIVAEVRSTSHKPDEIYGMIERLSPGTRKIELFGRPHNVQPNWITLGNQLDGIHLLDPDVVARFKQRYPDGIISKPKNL
Sequence of METTL3/METTL14 (Q9HCE5 whole entry partner, species assumed): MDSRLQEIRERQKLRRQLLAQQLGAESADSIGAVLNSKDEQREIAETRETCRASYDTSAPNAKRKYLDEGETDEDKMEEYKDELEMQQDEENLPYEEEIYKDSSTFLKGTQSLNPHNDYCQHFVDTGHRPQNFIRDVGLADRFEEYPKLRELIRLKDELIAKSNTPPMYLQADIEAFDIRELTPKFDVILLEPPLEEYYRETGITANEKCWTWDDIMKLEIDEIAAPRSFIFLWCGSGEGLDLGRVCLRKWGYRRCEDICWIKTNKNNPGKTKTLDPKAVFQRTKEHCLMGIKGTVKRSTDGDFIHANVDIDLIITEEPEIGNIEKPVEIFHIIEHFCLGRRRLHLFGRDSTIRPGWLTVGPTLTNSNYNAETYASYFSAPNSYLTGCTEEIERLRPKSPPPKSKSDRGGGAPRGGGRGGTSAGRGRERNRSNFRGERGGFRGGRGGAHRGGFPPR

Cn1ccc(-c2cn([C@@H]3O[C@H](C(=O)NC4CCOCC4)[C@@H](O)[C@H]3O)c3ncnc(N)c23)n1 [Compound I-182]
IC50 [1]: ≥ 1000 nM
IC50 [2]: 100 to 1000 nM
IC50 [3]: ≥ 1000 nM
IC50 [4]: ≥ 1000 nM

Cn1ccc(-c2cn([C@@H]3O[C@H](C(=O)NCCc4ccccc4)[C@@H](O)[C@H]3O)c3ncnc(N)c23)n1 [Compound I-192]
IC50 [1]: 100 to 1000 nM
IC50 [2]: 100 to 1000 nM
IC50 [3]: ≥ 1000 nM
IC50 [4]: ≥ 1000 nM

Cn1ccc(-c2cn([C@@H]3O[C@H](C(=O)Nc4cc(N5CCC5)ccn4)[C@@H](O)[C@H]3O)c3ncnc(N)c23)n1 [Compound I-168]
IC50 [1]: 100 to 1000 nM
IC50 [2]: 10 to 100 nM
IC50 [3]: ≥ 1000 nM
IC50 [4]: ≥ 1000 nM

COCCNc1ccnc(NC(=O)[C@H]2O[C@@H](n3cc(-c4ccn(C)n4)c4c(N)ncnc43)[C@H](O)[C@@H]2O)c1 [Compound I-165]
IC50 [1]: 100 to 1000 nM
IC50 [2]: 100 to 1000 nM
IC50 [3]: ≥ 1000 nM
IC50 [4]: ≥ 1000 nM

CN1CCC(NC(=O)[C@H]2O[C@@H](n3cc(-c4ccn(C)n4)c4c(N)ncnc43)[C@@H](F)[C@@H]2O)CC1 [Compound I-60]
IC50 [1]: 100 to 1000 nM
IC50 [2]: ≥ 1000 nM
IC50 [3]: ≥ 1000 nM
IC50 [4]: ≥ 1000 nM

Cn1ccc(-c2cn([C@@H]3O[C@H](C(=O)NC4CCNC(=O)C4)[C@@H](O)[C@H]3O)c3ncnc(N)c23)n1 (stereo partly shown) [Compound I-175]
IC50 [1]: ≥ 1000 nM
IC50 [2]: ≥ 1000 nM
IC50 [3]: ≥ 1000 nM
IC50 [4]: ≥ 1000 nM

CC(=O)N1CCC(CNC(=O)[C@H]2O[C@@H](n3cc(-c4ccn(C)n4)c4c(N)ncnc43)[C@H](O)[C@@H]2O)CC1 [Compound I-227]
IC50 [1]: ≥ 1000 nM
IC50 [2]: ≥ 1000 nM
IC50 [3]: ≥ 1000 nM
IC50 [4]: ≥ 1000 nM

CN(C)CCCNC(=O)[C@H]1O[C@@H](n2cc(-c3ccn(C)n3)c3c(N)ncnc32)[C@H](O)[C@@H]1O [Compound I-183]
IC50 [1]: ≥ 1000 nM
IC50 [2]: 10 to 100 nM
IC50 [3]: ≥ 1000 nM
IC50 [4]: ≥ 1000 nM

Cn1ccc(-c2cn([C@@H]3O[C@H](C(=O)N4CCNCC4)[C@@H](O)[C@H]3O)c3ncnc(N)c23)n1 [Compound I-176]
IC50 [1]: 100 to 1000 nM
IC50 [2]: 100 to 1000 nM
IC50 [3]: ≥ 1000 nM
IC50 [4]: ≥ 1000 nM

Cn1ccc(-c2cn([C@@H]3O[C@H](C(=O)N4CCNC(=O)C4)[C@@H](O)[C@H]3O)c3ncnc(N)c23)n1 [Compound I-204]
IC50 [1]: ≥ 1000 nM
IC50 [2]: ≥ 1000 nM
IC50 [3]: ≥ 1000 nM
IC50 [4]: ≥ 1000 nM

Cn1ccc(-c2cn([C@@H]3O[C@H](C(=O)NC4CCc5nc(N)sc5C4)[C@@H](O)[C@H]3O)c3ncnc(N)c23)n1 (stereo in doubt) [Compound I-161]
IC50 [1]: 100 to 1000 nM
IC50 [2]: 100 to 1000 nM
IC50 [3]: ≥ 1000 nM
IC50 [4]: ≥ 1000 nM

Cn1ccc(-c2cn([C@@H]3O[C@H](C(=O)NN4CCCCC4)[C@@H](O)[C@H]3O)c3ncnc(N)c23)n1 [Compound I-199]
IC50 [1]: ≥ 1000 nM
IC50 [2]: 100 to 1000 nM
IC50 [3]: ≥ 1000 nM
IC50 [4]: ≥ 1000 nM

Cn1ccc(-c2cn([C@@H]3O[C@H](C(=O)Nc4cc(NC5CCC5)ccn4)[C@@H](O)[C@H]3O)c3ncnc(N)c23)n1 [Compound I-162]
IC50 [1]: 100 to 1000 nM
IC50 [2]: 10 to 100 nM
IC50 [3]: ≥ 1000 nM
IC50 [4]: ≥ 1000 nM

C[C@@H](NC(=O)[C@H]1O[C@@H](n2cc(-c3ccn(C)n3)c3c(N)ncnc32)[C@H](O)[C@@H]1O)C1CCNCC1 [Compound I-196]
IC50 [1]: ≥ 1000 nM
IC50 [2]: 100 to 1000 nM
IC50 [3]: ≥ 1000 nM
IC50 [4]: ≥ 1000 nM

CNc1nc2ccc(NC(=O)[C@H]3O[C@@H](n4cc(-c5ccn(C)n5)c5c(N)ncnc54)[C@H](O)[C@@H]3O)cc2[nH]1 [Compound I-142]
IC50 [1]: < 10 nM
IC50 [2]: < 10 nM
IC50 [3]: ≥ 1000 nM
IC50 [4]: ≥ 1000 nM

Cn1ccc(-c2cn([C@@H]3O[C@H](C(=O)Nc4cc(NCC5CC5)ccn4)[C@@H](O)[C@H]3O)c3ncnc(N)c23)n1 [Compound I-163]
IC50 [1]: 100 to 1000 nM
IC50 [2]: 10 to 100 nM
IC50 [3]: ≥ 1000 nM
IC50 [4]: ≥ 1000 nM

Cn1ccc(-c2cn([C@@H]3O[C@H](C(=O)NCCc4c[nH]cn4)[C@@H](O)[C@H]3O)c3ncnc(N)c23)n1 [Compound I-228]
IC50 [1]: 100 to 1000 nM
IC50 [2]: 100 to 1000 nM
IC50 [3]: ≥ 1000 nM
IC50 [4]: ≥ 1000 nM

CCN(CC)C(=O)[C@H]1O[C@@H](n2cc(-c3ccn(C)n3)c3c(N)ncnc32)[C@H](O)[C@@H]1O [Compound I-150]
IC50 [1]: ≥ 1000 nM
IC50 [2]: 100 to 1000 nM
IC50 [3]: ≥ 1000 nM
IC50 [4]: ≥ 1000 nM

CCNc1cc(CNC(=O)[C@H]2O[C@@H](n3cc(-c4ccn(C)n4)c4c(N)ncnc43)[C@H](O)[C@@H]2O)ccn1 [Compound I-226]
IC50 [1]: 100 to 1000 nM
IC50 [2]: 100 to 1000 nM
IC50 [3]: ≥ 1000 nM
IC50 [4]: ≥ 1000 nM

Cc1ccnc(NC(=O)[C@H]2O[C@@H](n3cc(-c4ccn(C)n4)c4c(N)ncnc43)[C@H](O)[C@@H]2O)c1 [Compound I-172]
IC50 [1]: ≥ 1000 nM
IC50 [2]: ≥ 1000 nM
IC50 [3]: ≥ 1000 nM
IC50 [4]: ≥ 1000 nM

N#Cc1cn([C@@H]2O[C@H](C(=O)Nc3ccc4ccc(N5CCC5)nc4c3)[C@@H](O)[C@H]2O)c2ncnc(N)c12 [Compound I-52, (2S,3S,4R,5R)-5-{4-amino-5-cyano-7H-pyrrolo[2,3-d]pyrimidin-7-yl}-N-[2-(azetidin-1-yl)quinolin-7-yl]-3,4-dihydroxyoxolane-2-carboxamide]
IC50 [1]: 10 to 100 nM
IC50 [2]: 100 to 1000 nM
IC50 [3]: 100 to 1000 nM
IC50 [4]: 100 to 1000 nM

COc1cccc(NC(=O)[C@H]2O[C@@H](n3cc(-c4ccn(C)n4)c4c(N)ncnc43)[C@H](O)[C@@H]2O)c1 [Compound I-157]
IC50 [1]: ≥ 1000 nM
IC50 [2]: 100 to 1000 nM
IC50 [3]: ≥ 1000 nM
IC50 [4]: ≥ 1000 nM
